In article PMC11420776 (RSC Advances, 2024):

Tests used:
[1] = test system: CCRF-CEM (leukemia); assay: NCI 60-cell one-dose antiproliferative screen; format: cell-based, human; settings: one dose 10 μM
[2] = test system: RPMI-8226 (leukemia); assay: NCI 60-cell one-dose antiproliferative screen; format: cell-based, human; settings: one dose 10 μM
[3] = test system: A549/ATCC (NSC lung cancer); assay: NCI 60-cell one-dose antiproliferative screen; format: cell-based, human; settings: one dose 10 μM
[4] = test system: EKVX (NSC lung cancer); assay: NCI 60-cell one-dose antiproliferative screen; format: cell-based, human; settings: one dose 10 μM
[5] = test system: HOP-62 (NSC lung cancer); assay: NCI 60-cell one-dose antiproliferative screen; format: cell-based, human; settings: one dose 10 μM
[6] = test system: HOP-92 (NSC lung cancer); assay: NCI 60-cell one-dose antiproliferative screen; format: cell-based, human; settings: one dose 10 μM
[7] = test system: NCI-H226 (NSC lung cancer); assay: NCI 60-cell one-dose antiproliferative screen; format: cell-based, human; settings: one dose 10 μM
[8] = test system: NCI-H23 (NSC lung cancer); assay: NCI 60-cell one-dose antiproliferative screen; format: cell-based, human; settings: one dose 10 μM
[9] = test system: NCI-H322M (NSC lung cancer); assay: NCI 60-cell one-dose antiproliferative screen; format: cell-based, human; settings: one dose 10 μM
[10] = test system: NCI-H460 (NSC lung cancer); assay: NCI 60-cell one-dose antiproliferative screen; format: cell-based, human; settings: one dose 10 μM
[11] = test system: NCI-H522 (NSC lung cancer); assay: NCI 60-cell one-dose antiproliferative screen; format: cell-based, human; settings: one dose 10 μM
[12] = test system: COLO-205 (colon cancer); assay: NCI 60-cell one-dose antiproliferative screen; format: cell-based, human; settings: one dose 10 μM
[13] = test system: HCC-2998 (colon cancer); assay: NCI 60-cell one-dose antiproliferative screen; format: cell-based, human; settings: one dose 10 μM
[14] = test system: HCT-116 (colon cancer); assay: NCI 60-cell one-dose antiproliferative screen; format: cell-based, human; settings: one dose 10 μM
[15] = test system: HCT-15 (colon cancer); assay: NCI 60-cell one-dose antiproliferative screen; format: cell-based, human; settings: one dose 10 μM
[16] = test system: HT29 (colon cancer); assay: NCI 60-cell one-dose antiproliferative screen; format: cell-based, human; settings: one dose 10 μM
[17] = test system: KM12 (colon cancer); assay: NCI 60-cell one-dose antiproliferative screen; format: cell-based, human; settings: one dose 10 μM
[18] = test system: SW-620 (colon cancer); assay: NCI 60-cell one-dose antiproliferative screen; format: cell-based, human; settings: one dose 10 μM
[19] = test system: SF-268 (CNS cancer); assay: NCI 60-cell one-dose antiproliferative screen; format: cell-based, human; settings: one dose 10 μM
[20] = test system: SF-295 (CNS cancer); assay: NCI 60-cell one-dose antiproliferative screen; format: cell-based, human; settings: one dose 10 μM
[21] = test system: SF-539 (CNS cancer); assay: NCI 60-cell one-dose antiproliferative screen; format: cell-based, human; settings: one dose 10 μM
[22] = test system: SNB-19 (CNS cancer); assay: NCI 60-cell one-dose antiproliferative screen; format: cell-based, human; settings: one dose 10 μM
[23] = test system: SNB-75 (CNS cancer); assay: NCI 60-cell one-dose antiproliferative screen; format: cell-based, human; settings: one dose 10 μM
[24] = test system: U251 (CNS cancer); assay: NCI 60-cell one-dose antiproliferative screen; format: cell-based, human; settings: one dose 10 μM
[25] = test system: LOX IMIV (melanoma); assay: NCI 60-cell one-dose antiproliferative screen; format: cell-based, human; settings: one dose 10 μM
[26] = test system: MALME-3M (melanoma); assay: NCI 60-cell one-dose antiproliferative screen; format: cell-based, human; settings: one dose 10 μM
[27] = test system: M14 (melanoma); assay: NCI 60-cell one-dose antiproliferative screen; format: cell-based, human; settings: one dose 10 μM
[28] = test system: MDA-MB-435 (melanoma); assay: NCI 60-cell one-dose antiproliferative screen; format: cell-based, human; settings: one dose 10 μM
[29] = test system: SK-MEL-2 (melanoma); assay: NCI 60-cell one-dose antiproliferative screen; format: cell-based, human; settings: one dose 10 μM
[30] = test system: SK-MEL-28 (melanoma); assay: NCI 60-cell one-dose antiproliferative screen; format: cell-based, human; settings: one dose 10 μM
[31] = test system: UACC-257 (melanoma); assay: NCI 60-cell one-dose antiproliferative screen; format: cell-based, human; settings: one dose 10 μM
[32] = test system: UACC-62 (melanoma); assay: NCI 60-cell one-dose antiproliferative screen; format: cell-based, human; settings: one dose 10 μM
[33] = test system: IGROV1 (ovarian cancer); assay: NCI 60-cell one-dose antiproliferative screen; format: cell-based, human; settings: one dose 10 μM
[34] = test system: OVCAR-3 (ovarian cancer); assay: NCI 60-cell one-dose antiproliferative screen; format: cell-based, human; settings: one dose 10 μM
[35] = test system: OVCAR-4 (ovarian cancer); assay: NCI 60-cell one-dose antiproliferative screen; format: cell-based, human; settings: one dose 10 μM
[36] = test system: OVCAR-5 (ovarian cancer); assay: NCI 60-cell one-dose antiproliferative screen; format: cell-based, human; settings: one dose 10 μM
[37] = test system: OVCAR-8 (ovarian cancer); assay: NCI 60-cell one-dose antiproliferative screen; format: cell-based, human; settings: one dose 10 μM
[38] = test system: NCI/ADR-RES (ovarian cancer); assay: NCI 60-cell one-dose antiproliferative screen; format: cell-based, human; settings: one dose 10 μM
[39] = test system: SK-OV-3 (ovarian cancer); assay: NCI 60-cell one-dose antiproliferative screen; format: cell-based, human; settings: one dose 10 μM
[40] = test system: 786-0 (renal cancer); assay: NCI 60-cell one-dose antiproliferative screen; format: cell-based, human; settings: one dose 10 μM
[41] = test system: A498 (renal cancer); assay: NCI 60-cell one-dose antiproliferative screen; format: cell-based, human; settings: one dose 10 μM
[42] = test system: ACHN (renal cancer); assay: NCI 60-cell one-dose antiproliferative screen; format: cell-based, human; settings: one dose 10 μM
[43] = test system: CAKI-1 (renal cancer); assay: NCI 60-cell one-dose antiproliferative screen; format: cell-based, human; settings: one dose 10 μM
[44] = test system: RXF 393 (renal cancer); assay: NCI 60-cell one-dose antiproliferative screen; format: cell-based, human; settings: one dose 10 μM
[45] = test system: SN12C (renal cancer); assay: NCI 60-cell one-dose antiproliferative screen; format: cell-based, human; settings: one dose 10 μM
[46] = test system: TK-10 (renal cancer); assay: NCI 60-cell one-dose antiproliferative screen; format: cell-based, human; settings: one dose 10 μM
[47] = test system: UO-31 (renal cancer); assay: NCI 60-cell one-dose antiproliferative screen; format: cell-based, human; settings: one dose 10 μM
[48] = test system: PC-3 (prostate cancer); assay: NCI 60-cell one-dose antiproliferative screen; format: cell-based, human; settings: one dose 10 μM
[49] = test system: DU-145 (prostate cancer); assay: NCI 60-cell one-dose antiproliferative screen; format: cell-based, human; settings: one dose 10 μM
[50] = test system: MCF7 (breast cancer); assay: NCI 60-cell one-dose antiproliferative screen; format: cell-based, human; settings: one dose 10 μM
[51] = test system: MDA-MB-231/ATCC (breast cancer); assay: NCI 60-cell one-dose antiproliferative screen; format: cell-based, human; settings: one dose 10 μM
[52] = test system: HS 578T (breast cancer); assay: NCI 60-cell one-dose antiproliferative screen; format: cell-based, human; settings: one dose 10 μM
[53] = test system: T-47D (breast cancer); assay: NCI 60-cell one-dose antiproliferative screen; format: cell-based, human; settings: one dose 10 μM
[54] = test system: MDA-MB-468 (breast cancer); assay: NCI 60-cell one-dose antiproliferative screen; format: cell-based, human; settings: one dose 10 μM
[55] = test system: 60 human tumor cell lines; assay: NCI 60-cell one-dose antiproliferative screen, whole panel; format: cell-based; settings: for inhibition at 10 µM: Homo sapiens, 60 cell, read-out: Mean inhibition (mean GI%); for cytotoxic activity in words: NCI-60 panel, one dose 10 μM

Cc1cc(C)n(-c2ccc3nnc(-c4ccccc4)n3n2)n1 [Compound 5, 6-(3,5-dimethyl-1H-pyrazol-1-yl)-3-phenyl-[1,2,4]triazolo[4,3-b]pyridazine]
>100%: GI% [47]
25.28%: GI% [43]
— (— GI% is below 15%): GI% [1] | GI% [2] | GI% [3] | GI% [4] | GI% [5] | GI% [6] | GI% [7] | GI% [8] | GI% [9] | GI% [10] | GI% [12] | GI% [13] | GI% [14] | GI% [15] | GI% [16] | GI% [17] | GI% [18] | GI% [19] | GI% [20] | GI% [21] | GI% [22] | GI% [23] | GI% [24] | GI% [26] | GI% [27] | GI% [28] | GI% [29] | GI% [30] | GI% [31] | GI% [32] | GI% [33] | GI% [34] | GI% [35] | GI% [36] | GI% [37] | GI% [39] | GI% [40] | GI% [41] | GI% [42] | GI% [44] | GI% [45] | GI% [46] | GI% [48] | GI% [49] | GI% [50] | GI% [51] | GI% [52] | GI% [53] | GI% [54]
demolished cytotoxicity: cytotoxic activity in words [55]
25.34%: GI% [11]
23.93%: GI% [38]
< 0%: inhibition at 10 µM [55]
22.70%: GI% [25]

CC(=O)NNc1ccc2nnc(-c3ccccc3)n2n1 [Compound 6a, N′-(3-Phenyl-[1,2,4]triazolo[4,3-b]pyridazin-6-yl)acetohydrazide]
— (— GI% is below 15%): GI% [1] | GI% [2] | GI% [3] | GI% [4] | GI% [5] | GI% [6] | GI% [7] | GI% [8] | GI% [9] | GI% [10] | GI% [11] | GI% [12] | GI% [13] | GI% [14] | GI% [15] | GI% [16] | GI% [17] | GI% [18] | GI% [19] | GI% [20] | GI% [21] | GI% [22] | GI% [23] | GI% [24] | GI% [25] | GI% [26] | GI% [27] | GI% [28] | GI% [29] | GI% [30] | GI% [31] | GI% [32] | GI% [33] | GI% [34] | GI% [35] | GI% [36] | GI% [37] | GI% [38] | GI% [39] | GI% [40] | GI% [41] | GI% [42] | GI% [43] | GI% [44] | GI% [45] | GI% [46] | GI% [47] | GI% [48] | GI% [49] | GI% [50] | GI% [51] | GI% [52] | GI% [53] | GI% [54]
demolished cytotoxicity: cytotoxic activity in words [55]
< 15%: inhibition at 10 µM [55]
